Test results taken from ChEMBL document CHEMBL2169770, “The discovery and optimization of a novel class of potent, selective, and orally bioavailable anaplastic lymphoma kinase (ALK) inhibitors with potential utility for the treatment of cancer” (J Med Chem, 2012).

What was measured:
[1] = Oral bioavailability in Beagle dog; type: ADME, organism-based, Canis lupus familiaris; settings: in vivo
[2] = Volume of distribution at steady state in rat; type: ADME, organism-based; settings: in vivo, read-out: Vdss
[3] = Oral bioavailability in rat; type: ADME, organism-based; settings: in vivo
[4] = Volume of distribution at steady state in Beagle dog; type: ADME, organism-based, Canis lupus familiaris; settings: in vivo, read-out: Vdss

Row | bioavailability [1] [%] | Vd [2] [L/kg] | bioavailability [3] [%] | Vd [4] [L/kg] | Structure (SMILES)
1 | 52 | 6.4 | 20 | 1.58 | CC(C)NC(=O)[C@H]1CC[C@@H](n2/c(=N/C(=O)c3ccc(F)cc3)[nH]c3ccc(CN4CCC(C(C)(C)O)CC4)cc32)CC1
2 | 71 | 5.42 | 11 | 1.82 | CC(C)NC(=O)[C@H]1CC[C@@H](n2/c(=N/C(=O)c3cc(F)cc(F)c3)[nH]c3ccc(CN4CCC(C(C)(C)O)CC4)cc32)CC1
